Patent publication US7427503B2, “Method for transferring material in a cell system” (Eppendorf AG, priority 2000, dated 2008)

What was measured:
Jurkat cells [1] = assay: Electroporation of Jurkat cells with and without trehalose in iso-osmolar working medium; assay type: cell-based, human; details: 290 mOsm
Procedure: Electroporation of Cells with and without Trehalose in an Iso-osmolar Working Medium.
Essentially, the same experimental conditions as in Example 1 applied, except that the osmolarity of the pulse medium was adjusted to iso-osmolar conditions by adding inositol to 290 mOsm.
Again, α,α-trehalose was added in the following concentrations: 0 mM and 40 mM.

Jurkat cells [2] = assay: Electroporation of Jurkat cells with and without trehalose in hypo-osmolar working medium; assay type: cell-based, human; details: 100 mOsm
Procedure: Electroporation of Cells with and without Trehalose in a Hypo-osmolar Working Medium.
A phosphate buffer with 1.15 mM K2HPO4/KH2PO4 buffer, pH 7.2, was used as a pulse medium. KCl at a concentration of 10 mM (α=1.5−1.6 mS/cm) was added as a conducting salt. After this, trehalose at the respective concentration was added to the pulse medium. Osmolarity was adjusted to 100 mOsm by the addition of inositol, so as to obtain a hypo-osmolar solution.
Jurkat cells that are cells of a human T-lymphocytes line were used. 40 μg/ml propidium iodide, which is a membrane-impermeable DNA dye, was added as the material to be transferred.
Pulse application took place after 10 minutes of incubation prior to pulse application, in the pulse medium at room temperature (cell density: 2-3×10^6 cells/ml). Pulse duration was 20 μs.
Electroporation took place in an Eppendorf multiporator. After pulse application, the pores were left to reseal for 10 min at room temperature.
Electropermeabilisation took place at the following trehalose concentrations: 0 mM and 40 mM (α,α-trehalose).
Pulsing takes place at 4° C. or at room temperature. This can be single pulsing; however, multiple pulsing involving up to 3 pulses can at times be advantageous.

OC[C@H]1O[C@H](O[C@H]2O[C@H](CO)[C@@H](O)[C@H](O)[C@H]2O)[C@H](O)[C@@H](O)[C@@H]1O [trehalose, α,α-trehalose]
survival rate (Jurkat cells [1]; 40 mM trehalose vs 0 mM, above all at high field strength, FIG. 3): untreated cells (0 mM, outline squares) is many times less than in the case of cells treated with 40 mM trehalose
propidium iodide uptake (Jurkat cells [1]; 40 mM trehalose vs 0 mM, FIG. 3): varies less markedly
pulse efficiency (Jurkat cells [1]; 40 mM trehalose, increasing field strength, FIG. 4): gradual increase in the pulse efficiency
propidium iodide uptake (Jurkat cells [2]; 40 mM trehalose vs 0 mM, 40 μg/ml propidium iodide, FIG. 1): only slightly influenced
pulse efficiency (product of propidium iodide uptake and survival rate) (Jurkat cells [2]; 40 mM trehalose vs control without trehalose, increasing field strength, FIG. 2): significantly above the values of a control sample
